Three substances from patent US20210382054A1, “METHODS FOR SCREENING UBIQUITIN LIGASE AGONISTS” (University of Washington, priority 2018, published 2021) can be followed below.

In this data set the target is T1, KEAP1-ssDNA12 and KRAS^G12D-ssDNA18 (Homo sapiens, UniProt P01116+Q14145, G12D).
T1 construct: full length human KRAS4B (UniProtKB-P01116-2) with a site mutation G12D; His-tag (N, cleaved yes); His-tag (N); made in house; host or cells: E. coli BL21 (DE3)
The data set can be described thus: APTLAB (adjustable platform for tracking low affinity binding) detected by Octet BLI. The following applies: ssDNA bridge oligonucleotide alone, no compound (FIG. 8B). From the text: While TR-FRET can be used as an informative second screen for hit validation, its principle is similar to AlphaScreen and relies on beads-based and proximity-induced signals. The hit compounds were further validated with additional methods that are distinct from AlphaScreen and TR-FRET methods. […] In other words, even though these compounds might be able to promote KRAS-KEAP1 interaction, the resulting ternary complex might be too unstable to be detected by the conventional methods. To overcome this problem, a new assay was designed (designated herein as APTLAB, adjustable platform for tracking low affinity binding) (FIG. 5), in which weak interactions between complementary DNA strands with variable length was used to enhance the compound-induced low affinity binding between KRAS and KEAP1 and render it detectable by conventional methods.
To couple adjustable DNA oligonucleotide interactions with low affinity protein-protein interaction, a protein fold, HUH, which is able to react with a specific single-stranded DNA (ssDNA) oligonucleotide and form a covalently linked protein-DNA conjugate (Lovendahl, K. N., Hayward, A. N. & Gordon, W. R. Sequence-Directed Covalent Protein-DNA Linkages in a Single Step Using HUH-Tags. J Am Chem Soc 139, 7030-7035, doi:10.1021/jacs.7b02572 (2017)), was utilized. HUH protein was fused to the C-terminus of KEAP1 and KRAS^G12D individually so that the two chimeric proteins can each form a covalent link with an ssDNA containing the HUH-reactive sequence (FIGS. 5 and 6). The purified HUH fusion proteins were adjusted to 100 μM in a buffer containing 20 mM HEPES (pH 7.5), 50 mM NaCl, 0.5 mM TCEP, 1 mM MgCl2 and 1 mM MnCl2. The ssDNA oligonulceotides were added to a final concentration of 120 μM. […]
ssDNA bridge oligonucleotides were synthesized with different lengths with 33, 28 and 23 nucleotides (nt) (FIG. 8A) and tested their ability to promote complex formation between the two ssDNA-protein conjugates as monitored by BLI. […]
Consider “ssDNA-bridge23nt: ssDNA bridge oligonucleotide, 23 nucleotides, 5′-GTTGTTGTTTTGTATGGTGTGTG-3′ (chemistry not fully specified)”, for which the “complex formation between KEAP1-ssDNA12 and KRAS^G12D-ssDNA18, BLI binding signal” value was “too weak to detect”.

Take “ssDNA-bridge28nt: ssDNA bridge oligonucleotide, 28 nucleotides, 5′-GTTGTTGTTGTTTTGTATGGTGTGTGGT-3′; inflection point bridge (chemistry not fully specified)”: the “complex formation between KEAP1-ssDNA12 and KRAS^G12D-ssDNA18, BLI binding signal” value is listed as “significantly lower”.

For “ssDNA-bridge33nt: ssDNA bridge oligonucleotide, 33 nucleotides, 5′-GTTGTTGTTGTTGTTTTGTATGGTGTGTGGTGG-3′ (chemistry not fully specified)”, the “complex formation between KEAP1-ssDNA12 and KRAS^G12D-ssDNA18, BLI binding signal” value is “high BLI signal”.
